# Measurements: patent US20230266321A1, “LIVE CELL ENGAGEMENT ASSAY” (Icahn School of Medicine at Mount Sinai, priority 2020, published 2023)
# How the values were obtained:
# BRAF-MEK1 complex = BRAF-MEK1 complex (Homo sapiens, UniProt Q02750); conditions: HCT116 cells, 200 nM, 1 hour
# KRAS-G12S A549 cells = experiment: Long-term clonogenic assay; type: cell-based, human; conditions: 10 nM final concentration, in comparison to amide-linker compounds (eg. 1, 3)
# Description: Cells were plated at a density of 6,000 cells per well in 6-well plates in 3 mL of culture medium. Twenty-four hours after seeding, compounds dissolved in DMSO or DMSO-only vehicles were added directly to the culture media at a 1:1000 dilution. Following 10 days of culture, cells were washed 2x in PBS, fixed in ice-cold methanol for 10 minutes, stained with crystal-violet at room temperature for 10 minutes, and subsequently washed three times in water. Plates were allowed to dry overnight before imagining with an Epson V600 scanner.
# HCT116 cells = experiment: Cell proliferation/viability assay under low-adherence conditions; type: cell-based, human
# Description: A375, A549, HCT116, and SKMEL-239 cells were plated in Corning Costar Ultra-Low Attachment 96-well plates (Reference number 3434). After 24 hours of incubation at 37° C., cells were treated with inhibitors (0.1% DMSO in final volume). Cells were grown for five days, and resazurin sodium salt was added at a final concentration of 0.01 µg/µL. Fluorescence was measured using a Molecular Devices SpectraMax M5 spectrophotometer after a 4-24-hour incubation with resazurin solution. Technical triplicate values were averaged for each experiment, and biological replicate values are represented as average +/- standard deviation. For each cell line, logEC50 values of inhibitors were statistically compared using the extra sum-of-squares F test in GraphPad Prism 8 (FIGS. 57, 58, 67, 68, 69).
# [1] = test system: MEK1 and MEK2 (kinase panel incl. BRAF, CRAF); experiment: In vitro kinase profiling, direct binding assays; conditions: 1 µM
# [2] = molecular target: T1, mouse KSR1-luc (KSR-bound MEK) (UniProt Q02750+Q61097); experiment: NanoBRET in-cell steady-state competition with tram-bo on KSR1-luc; type: cell-based
# T1 construct: expressed in transfected cells; host or cells: HEK293T
# [3] = test system: MEK1, MEK2 and upstream kinases BRAF, CRAF; experiment: In vitro kinase profiling, substrate phosphorylation assays; type: biochemical; conditions: incl. BRAF and CRAF phosphorylation of MEK1 as substrate
# [4] = test system: phosphorylated ERK1/2 (T202/Y204); experiment: Immunoblot of RAS/ERK pathway inhibition; type: cell-based, human; conditions: 1 hour, increasing concentrations, relative to trametinib
# Description: Cells were plated at a density of 300,000 cells per well in 6-well plates in 2 mL of culture medium. 24 hours after seeding, cells were treated with compounds or DMSO at a 1:1000 dilution (0.1 % DMSO in final volume). […] Samples were normalized to a protein content of 5 µg/µL in 100 µL total volume, and 20 µL of 6x SDS was added. […] Transfers were confirmed using ponceau red, washed, and then blocked for 1 hour with 5% BSA TBS-T, prior to overnight incubation with primary antibodies including phospho-ERK1/2 T202/Y204 and total ERK1/2 (Cell Signaling Technologies (CST) 9101S and 4695S, respectively) in 5% BSA TBS-T. The next day, blots were washed extensively, and incubated in secondary antibody (Anti-Rabbit IgG HRP-Linked CST 7074S).
# MEK-NL = molecular target: T2, MEK-NL (Homo sapiens, UniProt Q02750); experiment: Tracer buildup curves on MEK-NLuc (NanoBRET); type: cell-based; conditions: HEK293T cells, 2 hrs at 37° C.; read-out: binding affinity to MEK-NL (tracer buildup curves)
# T2 construct: expressed in transfected cells; host or cells: HEK293T
# Description: (v) Tram-bo and PD-bo buildup curves measure on MEK-NLuc. A human C-terminal NanoLuc fusion of MEK was transfected as mentioned above at a concentration of […] in combination with […] of carrier DNA. […] A 20x solution was added to each well to give final concentrations of 2, 1, 0.5, 0.1, 0.05, 0.01, 0.001, 0.0001 mM for PD-bo, and 1, 0.1, 0.05, 0.01, 0.005, 0.001, 0.0001, 0.00001 for Tram-bo. […] All data were analyzed using Prism 8 (GraphPad)
# [5] = test system: luciferase-tagged human KSR1, KSR2, ARAF, BRAF, and CRAF/RAF1; experiment: RAF family tram-bo buildup curves (NanoBRET); type: cell-based; conditions: BRET buildup curves with increasing tracer concentrations
# Description: Human c-terminal NanoLuc fusions versions of ARAF (Uniprot P10398), BRAF (UniProt P15056), CRAF (Uniprot P04049), KSR1 (Uniprot Q8IVT5), and KSR2 (Uniprot Q6VAB6) were transfected as mentioned above at a concentration of 0.1 µg/mL in combination with 9.9 µg/mL of carrier DNA. All RAF constructs from Promega. […] A 20x tram-bo solution was added to each well to give final concentrations of 4, 1, 0.5, 0.1, 0.05, 0.01, 0.001, 0.0001 µM. […] All data were analyzed using Prism 8 (GraphPad).
# MEK1-luc = MEK1-luc (Homo sapiens, UniProt Q02750); experiment: NanoBRET washout / intracellular residence time on MEK1-luc; conditions: cells pre-treated with MEKi, washed, 1 µM tram-bo added
# KSR1-MEK1 complex = KSR1-MEK1 complex (UniProt Q02750+Q61097, P775N); conditions: HCT116 cells, 200 nM, 1 hour
# [6] = HCT116, low-adherence conditions
smiles,measurement,setting,value
CNS(=O)(=O)Nc1cccc(-n2c(=O)n(C3CC3)c(=O)c3c(Nc4ccc(I)cc4F)n(C)c(=O)c(C)c32)c1 [trametiglue],effect on BRAF pulled down via endogenous MEK1 (co-IP),BRAF-MEK1 complex,markedly enhanced capture of BRAF
same,growth inhibition in long-term clonogenic assay,KRAS-G12S A549 cells,enhanced and durable growth inhibition
same,improvement in potency relative to CH5126766,HCT116 cells; [6],~200 fold
same,improvement in potency relative to trametinib,HCT116 cells; [6],approximately 7 fold
same,IC50,"HCT116 cells; low-adherence conditions, five days, resazurin, read-out: IC50 in the cell line HCT116",0.07 ± 0.04 nM
same,direct interaction with isolated BRAF or CRAF in binding experiments,[1],no direct interactions towards isolated BRAF or CRAF
same,selectivity in direct binding assays,[1],strong selectivity towards MEK1 and MEK2
same,potency and off-rate kinetics in cellular target engagement assays,"[2]; KSR-luc or MEK-luc reporters, residence time at 6.25 nM",retained similar potency and off-rate kinetics as trametinib
same,inhibition in substrate phosphorylation assays,[3],"not only inhibited MEK1 and MEK2, but also upstream kinases"
same,inhibition of RAS-MAPK signaling as measured by pERK,[4],higher potency inhibitor of RAS-MAPK signaling
Cc1c(=O)n(C)c(Nc2ccc(I)cc2F)c2c(=O)n(C3CC3)c(=O)n(-c3cccc(NC(=O)CCOCCOCCNC(=O)CCC4=[N+]5C(=Cc6ccc(-c7ccc[nH]7)n6[B-]5(F)F)C=C4)c3)c12 [Tram-bo],EC50,MEK-NL,4.7 nM
same,"tighter binding on KSR1-luc and KSR2-luc relative to ARAF-luc, BRAF-luc, and CRAF-luc",[5],~ 10 fold
CCN(C)S(=O)(=O)Nc1cccc(-n2c(=O)n(C3CC3)c(=O)c3c(Nc4ccc(I)cc4F)n(C)c(=O)c(C)c32)c1 [compound 6],growth inhibition in long-term clonogenic assay,KRAS-G12S A549 cells,enhanced and durable growth inhibition
"CNS(=O)(=O)Nc1nccc(Cc2c(C)c3ccc(Oc4ncccn4)cc3oc2=O)c1F [CH5126766, reference compound]",effect on BRAF pulled down via endogenous MEK1 (co-IP),BRAF-MEK1 complex,enhances interactions between endogenous BRAF and MEK1
O=C(c1ccc(F)c(F)c1Nc1ccc(I)cc1F)N1CC(O)([C@@H]2CCCCN2)C1 [cobimetinib],dissociation kinetics after washout on MEK1-luc,MEK1-luc,dissociated more readily
same,IC50,"[2]; HEK293T cells, 1 µM tram-bo tracer, equilibrium binding, mean ± s.e.m., read-out: steady-state IC50 against KSR1-luc",5.1 ± 0.7 nM
same,difference in potency between KSR1-luc and MEK1-luc,[2]; IC50 MEK1-luc vs KSR1-luc,~20 fold
same,effect on complex stability of K1 (KSR1 P775N) and B2 (BRAF R662A) mutants with MEK (co-IP),KSR1-MEK1 complex,did not alter complex stability
Cc1c(=O)n(C)c(Nc2ccc(I)cc2F)c2c(=O)n(C3CC3)c(=O)n(-c3cccc(NS(=O)(=O)NC4CC4)c3)c12 [compound 5],growth inhibition in long-term clonogenic assay,KRAS-G12S A549 cells,enhanced and durable growth inhibition
